According to patent US20240207427A1, “SELECTIVE DRUG RELEASE FROM INTERNALIZED CONJUGATES OF BIOLOGICALLY ACTIVE COMPOUNDS” (priority 2021, published 2024):
Like-named read-outs stand apart in the source and are kept apart here.

Columns and labels:
Assay type in all cases: cell-based
[1] = system: renal carcinoma cells (786-O); test: In vitro potency (CellTiter-Glo, 96 h), 786-O; conditions: Homo sapiens, 786-0, 96 h
Outline: (§1)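 Medium: RPMI 1640 + 20% FBS. Pre-seeding: 24 h. Treatment: ADC or CPT free drug serial dilutions, 96 h, 37 °C. Read-out: luminescence; IC50 in ng/mL and nmol/L.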

melanoma cells (A2058) = test: In vitro potency (CellTiter-Glo, 96 h), A2058; conditions: Homo sapiens, A2058, 96 h, read-out: A2058 IC50
Outline: (§2)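 Antibody-drug conjugates, prepared as dilution series in culture medium, were added to cells seeded a day earlier in RPMI 1640 supplemented with 20% FBS. After four days at 37 °C, luminescence measured growth inhibition.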

[2] = system: pancreatic cancer cells (BxPC3); test: In vitro potency (CellTiter-Glo, 96 h), BxPC3; conditions: Homo sapiens, BXPC-3, 96 h
Outline: as §2

[3] = system: non-small-cell lung cancer cells (Calu1); test: In vitro potency (CellTiter-Glo, 96 h), Calu1; conditions: Homo sapiens, Calu-1, 96 h, read-out: Calu1 IC50
Outline: as §2

[4] = system: anaplastic large cell lymphoma cells (DEL); test: In vitro potency (CellTiter-Glo, 96 h), DEL
Outline: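 Cells in log-phase growth seeded 24 h in RPMI 1640 with 20% FBS, then exposed to serially diluted ADC or CPT free drug for 96 h at 37 °C. Growth inhibition read by CellTiter-Glo luminescence; IC50 reported in ng/mL or nmol/L.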

[5] = system: anaplastic large cell lymphoma cells (DELBVR); test: In vitro potency (CellTiter-Glo, 96 h), DELBVR
Outline: as §1

[6] = system: anaplastic large cell lymphoma cells (Karpas299); test: In vitro potency (CellTiter-Glo, 96 h), Karpas299; conditions: Homo sapiens, KARPAS-299, 96 h
Outline: as §1

[7] = system: Hodgkin's lymphoma cells (L540cy); test: In vitro potency (CellTiter-Glo, 96 h), L540cy
Outline: as §1

Ls174T cells = test: In vitro potency (CellTiter-Glo, 96 h), Ls174T; conditions: Homo sapiens, 96 h, 96 h
Outline: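 Cells in log-phase growth are plated in RPMI 1640/20% FBS for 24 h. Serially diluted conjugates are then added, and plates are kept at 37 °C for 4 days before ATP-based luminescence gives growth inhibition.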

[8] = system: breast cancer cells (MDA-MB-231); test: In vitro potency (CellTiter-Glo, 96 h), MDA-MB-231; conditions: Homo sapiens, MDA-MB-231, 96 h
Outline: as §1

[9] = system: acute myeloid leukemia cells (MOLM-13); test: In vitro potency (CellTiter-Glo, 96 h), MOLM-13; conditions: Homo sapiens, MOLM-13, 96 h
Outline: as §2

[10] = system: B-lymphocyte cancer cells (SU-DHL4); test: In vitro potency (CellTiter-Glo, 96 h), SU-DHL-4; conditions: Homo sapiens, SU-DHL-4, 96 h
Outline: as §1

[11] = Table 28, CPT free drugs, renal carcinoma cells 786-O, 96 h, CellTiter-Glo, read-out: 786-O IC50
[12] = Table 28, CPT free drugs, melanoma cells A2058, 96 h, CellTiter-Glo
[13] = Table 28, CPT free drugs, pancreatic cancer cells BxPC3, 96 h, CellTiter-Glo, read-out: BxPC3 IC50
[14] = Table 28, CPT free drugs, anaplastic large cell lymphoma cells DEL, CellTiter-Glo, read-out: DEL IC50
[15] = Table 28, CPT free drugs, anaplastic large cell lymphoma cells DELBVR, CellTiter-Glo, read-out: DELBVR IC50
[16] = Table 28, CPT free drugs, anaplastic large cell lymphoma cells Karpas299, 96 h, CellTiter-Glo, read-out: Karpas299 IC50
[17] = Table 28, CPT free drugs, Hodgkin's lymphoma cells L540cy, CellTiter-Glo, read-out: L540cy IC50
[18] = Table 28, CPT free drugs, Ls174T cells, CellTiter-Glo, read-out: Ls174T IC50
[19] = Table 28, CPT free drugs, breast cancer cells MDA-MB-231, 96 h, CellTiter-Glo, read-out: MDAMB231 IC50
[20] = Table 28, CPT free drugs, acute myeloid leukemia cells MOLM-13, 96 h, CellTiter-Glo, read-out: MOLM-13 IC50
[21] = Table 28, CPT free drugs, B-lymphocyte cancer cells SU-DHL4, 96 h, CellTiter-Glo, read-out: SU-DHL-4 IC50
[22] = read-out: 786-O IC50, camptothecin free drug, 96 h
[23] = read-out: BxPC3 IC50, camptothecin free drug, 96 h
[24] = read-out: DEL IC50, camptothecin free drug, 96 h
[25] = read-out: DELBVR IC50, camptothecin free drug, 96 h
[26] = read-out: Karpas299 IC50, camptothecin free drug, 96 h
[27] = read-out: L540cy IC50, camptothecin free drug, 96 h
[28] = LS174T, read-out: Ls174T IC50, camptothecin free drug, 96 h
[29] = read-out: MDAMB231 IC50, camptothecin free drug, 96 h
[30] = read-out: MOLM-13 IC50, camptothecin free drug, 96 h
[31] = read-out: SU-DHL-4 IC50, camptothecin free drug, 96 h

Structure (SMILES)	IC50 (melanoma cells (A2058)) [µM]	IC50 [3] [µM]	IC50 [1, 22] [µM]	IC50 [2, 23] [µM]	IC50 [4, 24] [µM]	IC50 [5, 25] [µM]	IC50 [6, 26] [µM]	IC50 [7, 27] [µM]	IC50 (Ls174T cells; [28]) [µM]	IC50 [8, 29] [µM]	IC50 [9, 30] [µM]	IC50 [10, 31] [µM]	also measured
CC[C@@]1(O)C(=O)OCc2c1cc1n(c2=O)Cc2c-1nc1cc(F)c(C)c(C=C(C)C)c1c2CN [Compound 6, (S)-11-(aminomethyl)-4-ethyl-8-fluoro-4-hydroxy-9-methyl-10-(2-methylprop-1-en-1-yl)-1,12-dihydro-14H-pyrano[3′,4′:6,7]indolizino[1,2-b]quinoline-3,14(4H)-dione]	0.005	0.017											IC50 ([1]; read-out: 786-O IC50, Table 28, CPT free drugs, renal carcinoma cells 786-O, 96 h, CellTiter-Glo): 0.005 µM; IC50 ([2]; read-out: BxPC3 IC50, Table 28, CPT free drugs, pancreatic cancer cells BxPC3, 96 h, CellTiter-Glo): 0.008 µM; IC50 ([4]; read-out: DEL IC50, Table 28, CPT free drugs, anaplastic large cell lymphoma cells DEL, CellTiter-Glo): 0.001 µM; IC50 ([5]; read-out: DELBVR IC50, Table 28, CPT free drugs, anaplastic large cell lymphoma cells DELBVR, CellTiter-Glo): 0.003 µM; IC50 ([6]; read-out: Karpas299 IC50, Table 28, CPT free drugs, anaplastic large cell lymphoma cells Karpas299, 96 h, CellTiter-Glo): 0.004 µM; IC50 ([7]; read-out: L540cy IC50, Table 28, CPT free drugs, Hodgkin's lymphoma cells L540cy, CellTiter-Glo): 0.004 µM; IC50 (Ls174T cells; LS174T, read-out: Ls174T IC50, Table 28, CPT free drugs, Ls174T cells, CellTiter-Glo): 0.021 µM; IC50 ([8]; read-out: MDAMB231 IC50, Table 28, CPT free drugs, breast cancer cells MDA-MB-231, 96 h, CellTiter-Glo): 0.007 µM; IC50 ([9]; read-out: MOLM-13 IC50, Table 28, CPT free drugs, acute myeloid leukemia cells MOLM-13, 96 h, CellTiter-Glo): 0.004 µM; IC50 ([10]; read-out: SU-DHL-4 IC50, Table 28, CPT free drugs, B-lymphocyte cancer cells SU-DHL4, 96 h, CellTiter-Glo): 0.002 µM
CC[C@@]1(O)C(=O)OCc2c1cc1n(c2=O)Cc2c-1nc1cc(F)c(C)c(C3=CCOC3)c1c2CN [Compound 6d]													IC50 [1, 11]: 0.023 µM; IC50 (melanoma cells (A2058); [12]): 0.013 µM; IC50 [2, 13]: 0.015 µM; IC50 ([3]; Table 28, CPT free drugs, non-small-cell lung cancer cells Calu1, 96 h, CellTiter-Glo): 0.043 µM; IC50 [4, 14]: 0.003 µM; IC50 [5, 15]: 0.012 µM; IC50 [6, 16]: 0.012 µM; IC50 [7, 17]: 0.011 µM; IC50 (Ls174T cells; [18]): 0.031 µM; IC50 [8, 19]: 0.021 µM; IC50 [9, 20]: 0.006 µM; IC50 [10, 21]: 0.004 µM
CC[C@@]1(O)C(=O)OCc2c1cc1n(c2=O)Cc2c-1nc1cc(F)c(C)c(-c3ccc(CO)s3)c1c2CN [Compound 6e]		0.155											IC50 [1, 11]: 0.029 µM; IC50 (melanoma cells (A2058); [12]): 0.011 µM; IC50 [2, 13]: 0.065 µM; IC50 [4, 14]: 0.004 µM; IC50 [5, 15]: 0.004 µM; IC50 [6, 16]: 0.031 µM; IC50 [7, 17]: 0.018 µM; IC50 (Ls174T cells; [18]): 0.017 µM; IC50 [8, 19]: 0.057 µM; IC50 [9, 20]: 0.017 µM; IC50 [10, 21]: 0.007 µM
CC[C@@]1(O)C(=O)OCc2c1cc1n(c2=O)Cc2c-1nc1cc3c(cc1c2CN(C)C)OCO3 [Compound 7ae]	0.011	0.555	0.039	0.048	0.008	0.014	0.042	0.02	0.046	0.164	0.165	0.023	
CC[C@@]1(O)C(=O)OCc2c1cc1n(c2=O)Cc2c-1nc1cc3c(cc1c2CNCCCS(C)(=O)=O)OCO3 [Compound 7c]	0.002	0.091	0.005	0.005	0.001	0.002	0.005	0.002	0.004	0.031	0.004	0.003	
CC[C@@]1(O)C(=O)OCc2c1cc1n(c2=O)Cc2c-1nc1cc3c(cc1c2CNCCS(N)(=O)=O)OCO3 [Compound 7d]	0.01	1	0.037	0.038	0.008	0.013	0.039	0.016	0.018	0.195	0.061	0.02	
CC[C@@]1(O)C(=O)OCc2c1cc1n(c2=O)Cc2c-1nc1cc3c(cc1c2CNCCCS(N)(=O)=O)OCO3 [Compound 7e]	0.005	0.503	0.025	0.021	0.008	0.014	0.027	0.013	0.017	0.124	0.257	0.016	
CC[C@@]1(O)C(=O)OCc2c1cc1n(c2=O)Cc2c-1nc1cc3c(cc1c2CNCC(O)CN1CCCCC1)OCO3 (stereo partly drawn) [Compound 7g]	0.008	0.486	0.033	0.029	0.008	0.014	0.029	0.014	0.018	0.116	0.056	0.018	
CC[C@@]1(O)C(=O)OCc2c1cc1n(c2=O)Cc2c-1nc1cc3c(cc1c2CNCCCO)OCO3 [Compound 7o]	0.016	0.839	0.052	0.047	0.01	0.019	0.042	0.026	0.025	0.275	0.115	0.027	
